From patent US8541455B2, “Derivatives of 2-pyridin-2-yl-pyrazol-3(2H)-one, preparation and therapeutic use thereof as HIF activators” (Sanofi, priority 2008, dated 2013)
Counter-ions that a name gives are not always drawn.

System: EPO secretion by Hep3B cells
Assay: Measurement of the secretion of EPO by Hep3B hepatocytes (ELISA on supernatant)
Format: cell-based
Details: Homo sapiens, 18 hours incubation under normoxia, EPO in supernatant, 50% of the maximum response of this same compound
Source text: 2. Measurement of the Secretion of VEGF and EPO by Hep3B Hepatocytes 2.1. Object
HIF is a transcription factor involved in the adaptation of cells to hypoxia. Since the genes activated by HIF are involved in the adaptive response of cells to hypoxia and of tissues to ischaemia, the object is to identify and characterize compounds that stabilize HIF1-alpha in cells in order to amplify or mimic its beneficial effect. HIF1-alpha was identified following the analysis of the EPO gene promoter, which makes this protein one of the first markers of HIF1-alpha activation. Moreover, VEGF is also identified in the literature as one of the main markers of HIF activation. It is for this reason that measurement of these two proteins was selected for characterizing compounds that are HIF activators in Hep3B cells.
The object was thus to develop a sensitive screening test, adaptable to 96-well plates, for directly measuring the amount of VEGF and EPO in the supernatant of the Hep3B cells (cells derived from a human hepatocarcinoma) in response to the potential HIF activators.
The test is an ELISA test for measuring VEGF and EPO in the supernatant of Hep3B cells treated under hypoxia or with deferoxamine as controls or with the potential HIF activators. The test was adapted to a 96-well plate, allowing greater compound screening capacity.
• 2.3.1 Experiment Plan • 1) Inoculation of the cells on D0 • 2) Adherence for 6 hours under normoxia • 3) Preparation and addition of the products (Biomek 2000 and FX) • 4) Incubation under normoxia for 18 hours • 5) EPO and VEGF assay in the supernatant on D+1 • 2.3.2 Inoculation of the Cells
The cells are subcultured into 100 μl of culture medium (10% FCS) in black, opaque-bottomed 96-well plates (reference Costar 3916) at 30 000 cells/well, with Multidrop. • 2.3.3 Treatment of the Cells
The test products are prepared at 10^−2 M in 100% DMSO and then diluted to […] in medium containing 0.1% FCS (6 μl in 194 μl of MEM). 200 μl of each compound are deposited in column 12 of a 96-well plate. Dilution ranges from […] to 3×10^−8M are prepared with Biomek 2000 (programme: range of 9 points in series). 100 μl of MEM 0.1% FCS and Deferoxamine 5×10^−3M are added as controls to column 3 and, respectively, to wells A,B,C,D and wells E,F,G,H • DL Plate Distribution in Cell Plates
The medium of the cells inoculated the day before into 96-well plates is changed for 90 μl of medium containing 0.1% FCS and 10 μl are distributed with FX 96 from the 96-well DL plates to the cell plates.
The cell plates thus treated are placed for 18 hours in an incubator at 37° C. (ambient O2, 6% CO2).
The supernatants (80 μl) of the Hep3B cells in the 96-well plates treated with the potential HIF activators are recovered with a multichannel pipette for simultaneous assay of the VEGF and the EPO by ELISA according to the supplier's instructions (Kit EPO Mesoscale (ref K15122B-2)).
The activating activity of a compound with respect to HIF is given by the concentration that produces 50% of the maximum response of this same compound in Table IV below.

Row | SMILES | EC50 [µM]
1 | CCN(c1ccccc1)S(=O)(=O)c1ccc(-n2[nH]c(C)c(Cc3cccc(COC)c3)c2=O)nc1 [Compound 34, N-ethyl-6-{4-[3-(methoxymethyl)benzyl]-3-methyl-5-oxo-2,5-dihydro-1H-pyrazol-1-yl}-N-phenylpyridine-3-sulfonamide] | 0.9

System: not given
Assay: not given
Details: not given

Row | melting point [°C] | SMILES
2 | 258 | COC(=O)c1ccc(-n2[nH]c(C)c(Cc3ccccc3Cl)c2=O)nc1 (as salt: HCl) [Compound 170]
3 | 186 | CN(C(C)(C)C)S(=O)(=O)c1ccc(-n2[nH]cc(Cc3ccccc3)c2=O)nc1 [Compound 100]
4 | 212 | Cc1[nH]n(-c2ccc(S(=O)(=O)N(C)C)cn2)c(=O)c1Cc1cccnc1 [Compound 66, N,N-dimethyl-6-[3-methyl-5-oxo-4-(pyridin-3-ylmethyl)-2,5-dihydro-1H-pyrazol-1-yl]pyridine-3-sulfonamide]
5 | 94 | Cc1[nH]n(-c2ccccn2)c(=O)c1Cc1ccc(C(F)(F)F)cc1 [Compound 186]
6 | 124 | CCN(c1ccccc1)S(=O)(=O)c1ccc(-n2[nH]c(C)c(Cc3cccc(OCCN(C)C)c3)c2=O)nc1 (as salt: hydrochloride) [Compound 56, 6-(4-{3-[2-(dimethylamino)ethoxy]benzyl}-3-methyl-5-oxo-2,5-dihydro-1H-pyrazol-1-yl)-N-ethyl-N-phenylpyridine-3-sulfonamide hydrochloride]
7 | 96 | COc1ccc(Cc2c(C)[nH]n(-c3ccccn3)c2=O)cc1 [Compound 191]
